These results are taken from patent US20060205938A1, “Monohydrate solvates of loracarbef” (priority 2002, published 2006).

Molecules are shown by their SMILES.

The conditions of data set [1]: fine, fluffy powder obtained by the process disclosed in EP 0,369,686; cited from earlier work.
Data set [2] can be described thus: Bulk density of crystalline loracarbef monohydrate. In kind it is physicochemical.

Take `N[C@@H](C(=O)N[C@@H]1C(=O)N2C(C(=O)O)=C(Cl)CC[C@H]12)c1ccccc1.O` [crystalline loracarbef monohydrate, (6R,7S)-7-[(R)-2-amino-2-phenylacetamido]-3-chloro-8-oxo-1-azabicyclo [4.2.0]oct-2-ene-carboxylic acid, monohydrate]: the density result in data set [1] is recorded as “approximately 0.2 g/ml”. Further, the bulk density result in data set [2] (crystalline monohydrate prepared from mono N,N-dimethylacetamide monohydrate solvate (Example 2)) is “greater than 0.6 g/ml”; in data set [2] (crystalline monohydrate prepared from mono N-methyl pyrrolidone monohydrate solvate (Example 4)) it was “greater than 0.6 g/ml”; in data set [2] (monohydrate prepared from mono N,N-dimethylacetamide monohydrate solvate or mono N-methylpyrrolidone monohydrate solvate), not below 0.6 g/mL.
